Molecules are shown by their SMILES.

The subject of assay [1] is HT-29 (colorectal carcinoma). Kind of assay: In vitro cytotoxic activity (GI50), method (a), propidium iodide. The assay is classed as cell-based. The settings on record: Homo sapiens, HT-29; method (a), 96 hours; read-out: HT-29 (GI50 μM). On the procedure:
(§1) Compounds were dissolved at 10 mM in DMSO. Dilution in vehicle to concentrations of 30, 10, 3, 1 and 0.3 μM were prepared immediately before assays. Depending on the cell line's growth characteristics, 4000-10000 cells were plated in two 96-wells pates (day 0) and incubated for 16 hours. The following day, propidium iodide was added to one of the two plates and fluorescence measured (Tz). Test compounds were added to the second plate, as well as vehicle control, and cells further incubated for 96 hours. Each compound was tested at each concentration and in triplicates. The equivalent cell number was determined after adding propidium iodide by measuring the signal by fluorescence (C for control).

For assay [2], the system named is PC-3 (prostate adenocarcinoma). The assay is described as above. It is filed as cell-based. The settings on record: method (a), 96 hours; read-out: PC-3 (GI50 μM). The protocol:
as §1

A further assay relates to SF268 (CNS). The assay is described as above. The assay is classed as cell-based. The settings on record: Homo sapiens, SF-268; method (a), 96 hours; read-out: SF-268 (GI50 μM). On the procedure:
as §1

Assay [3] deals with MDA-MB-231 (mammary gland adenocarcinoma). The description is as above. It is filed as cell-based. The settings on record: Homo sapiens, MDA-MB-231; method (a), 96 hours; read-out: MDA-MB-231 (GI50 μM). The protocol:
as §1

Another assay relates to C6 glioblastoma. Kind of assay: In vivo efficacy in glioma model, first series (treatment started 24 hrs after inoculation). Also on record: species or system Mus musculus nude mice. On the procedure: The aim of this study was to test whether Compound 1 administered by the i.p. route prevents or delays tumor growth in C6 glioblastoma cell-bearing mice, and to determine an effective dosage regimen.
Animal experiments were performed according to ethical guidelines of animal experimentation (Charte du comité d'éthique du CNRS, juillet 2003) and the English guidelines for the welfare of animals in experimental neoplasia (WORKMAN, P., […], P., BALKWILL, F., et al. (1998). United Kingdom Coordinating Committee on Cancer Research (UKCCCR) Guidelines for the welfare of animals in experimental neoplasia (Second Edition, July 1997; British Journal of Cancer, 77:1-10). Any dead or apparently sick mice were promptly removed and replaced with healthy mice. Sick mice were euthanized upon removal from the cage. Animals were maintained in rooms under controlled conditions of temperature (23±2° C.), humidity (45±5%), photoperiodicity (12 hrs light/12 hrs dark) and air exchange. Animals were housed in polycarbonate cages (5/single cage) that were equipped to provide food and water. Animal bedding consisted of sterile wood shavings that were replaced every other day. Food was provided ad libitum, being placed in the metal lid on the top of the cage. Autoclaved tap water was provided ad libitum. Water bottles were equipped with rubber stoppers and sipper tubes. Water bottles were cleaned, sterilized and replaced once a week. Two different numbers engraved on two earrings identified the animals. Each cage was labeled with a specific code.
Tumor Cell Line: The C6 cell line was cloned from a rat glial tumor induced by N-nitrosomethyurea (NMU) according to Premont et al. (Premont J, Benda P, Jard S., [3H] norepinephrine binding by rat glial cells in culture. Lack of correlation between binding and adenylate cyclase activation. Biochim Biophys Acta. 1975 Feb. 13;381(2):368-76.) after series of alternate culture and animal passages. Cells were grown as adherent monolayers at 37° C. in a humidified atmosphere (5% CO2, 95% air). The culture medium was DMEM supplemented with 2 mM L-glutamine and 10% fetal bovine serum. For experimental use, tumor cells were detached from the culture flask by a 10 min treatment with trypsin-versen. The cells were counted in a hemocytometer and their viability assessed by 0.25% trypan blue exclusion.
Preparation of the Test Article: For the test article, the following procedure was followed for reconstitution (performed immediately preceding injection). The vehicle consisted of a mixture of benzyl alcohol (1.5%), ethanol (8.5%), propylene glycol (27%), PEG 400 (27%), dimethylacetamide (6%) and water (30%). The vehicle solution was first vortexed in order to obtain a homogeneous liquid. 0.6 mL of the vortexed vehicle solution was added to each vial containing the test article (Compound 1). Vials were mixed thoroughly by vortexing for 1 minute and inverted and shaken vigorously. Vials were mixed again prior to injection into each animal.
Animal Inoculation with tumor cells: Experiment started at day 0 (D0). On D0, mice received a superficial intramuscular injection of C6 tumor cells (5×10^5 cells) in 0.1 mL of DMEM complete medium into the upper right posterior leg.
In a first series of experiments, treatment started 24 hrs following inoculation of C6 cells. On the day of the treatment, each mouse was slowly injected with 100 μL of test or control articles by the i.p. route. For all groups, treatment was performed until the tumor volume of the saline-treated mice (group 1) reached approximately 3 cm^3 (around day 16). Mice of group 1 were treated daily with a saline isosmotic solution for 16 days. Mice of group 2 were treated daily with the vehicle solution for 16 days. Mice of group 3 were treated daily with 10 mg/kg of Compound 1 for 16 days. Mice of group 4 were treated every two days with 30 mg/kg of Compound 1 and received 8 treatments. […]

What is called GI50 is the concentration at which growth is held to half of that of the control. One may read the % Inhibition as how much of the control response was suppressed. A lower % Inhibition goes with a response near the control. On to `CC(C)=CCC/C(C)=C/CC/C(C)=C/CN1C(=O)c2cccc(O)c2Nc2c(O)cc(O)cc21` [Compound 1, 10-farnesyl-4,6,8-trihydroxy-5,10-dihydrodibenzo[b,e][1,4]diazepin-11-one], for which the GI50 is 11.2 µM in assay [1], 1.95 µM in assay [2], 1.96 µM in the assay on SF268 (CNS) and 1.79 µM in assay [3]. Also, the “Tumor volume (mm^3) (mean ± SEM)” value in the assay on C6 glioblastoma (10 mg/kg i.p., Q1 × 16) is on record as 1,220.4 ± 283.46 mm^3; in the assay with C6 glioblastoma (30 mg/kg i.p., Q2 × 8), 1,236.9 ± 233.99 mm^3; with C6 glioblastoma (30 mg/kg i.p., Q3 × 6), 1,184.1 ± 221.45 mm^3. The “% Inhibition” value in the assay with C6 glioblastoma (10 mg/kg i.p., Q1 × 16, vs saline) is reported as 59.4%; with C6 glioblastoma (30 mg/kg i.p., Q2 × 8, vs saline), 58.8%; in the assay on C6 glioblastoma (30 mg/kg i.p., Q3 × 6, vs saline) it was 60.6%. The “mean value of the tumor volume of all treated groups” value in the assay on C6 glioblastoma (10-30 mg/kg i.p., compared to the saline group) is listed as “significantly reduced”.

Values taken from US20060079512A1, “Dibenzodiazepinone analogues, processes for their production and their use as pharmaceuticals” (Ecopia BioSciences, Inc., priority 2003, published 2006).
